# Measured values from patent publication US20080033039A1, “Combination of ceramide and oxaliplatin for inducing cell death and uses thereof in treating cancer” (priority 2006, published 2008).
# Where two headings read alike, the source gives them in different places.
# Key:
# [1] = tested on: L3.6 pancreatic tumor implants; details: for Mean Body Weight (g) (Time of Death or Sacrifice): at time of death or sacrifice; for anti-tumor response in combination therapy with C6-ceramide: SCID Mice bearing L3.6 pancreatic tumor implants
# Description: (§1) In vivo experiments utilized SCID/Beige/Taconic male mice inoculated subcutaneously (S.C.) with 2×10^6 L3.6 pancreatic cells. Chemotherapy dose levels were based on standardized clinical dosing as modified from in vitro data. […] The data recovered included maximum tumor volume, tumor weight, body weight and survival. Histopathology studies were carried out in a separate group of 40 mice treated by the same drug dose levels and autopsied at 4 hours and 24 hours. Tumors were bi-valved and fixed in buffered formalin or frozen in hexane/acetone bath. A major focus was effects on tumor necrosis, apoptosis, mitotic index and caspase 3 index.
# SCID/Beige/Taconic male mice, 22-25 g, 6-8 weeks old purchased from Taconic Laboratory (Germantown, N.Y.) were ear tagged and randomized into eight groups of 5 mice each prior to inoculation s.c. with 2×10^6 L3.6 PA cells (46) in a volume 0.1 ml into the internal surface of the right thigh. Treatment was started according to the protocol <0.5 cc> (early 4 days or late 10 days). […] Mice were treated 3 times/week for 4-6 weeks with intraperitoneal injections of chemotherapy at dose levels to be described. Body weight of mice and diameters of tumors were measured every week. Tumor volumes (cm^3) were calculated by formula: V=Higher diameter X (smaller diameter)^2/2 (47-50). At the end of the 6 week observation period surviving mice were euthanized with CO2 inhalation. All the mice were autopsied and tissues were fixed in 10% buffered formalin, embedded in paraffin, and H&E sections of primary tumor, lungs, spleen, liver were examined microscopically. We also analyzed survival rate (%), mean tumor volume (MTV), mean survival time (MST), % mice with primary tumors and final rate of tumor development per survival time (FRTD). The last test was calculated from the MTV and MST: FRTD(cm^3/d)=MTV (cm^3/MST/day).
# Our initial dose response studies were done using low dose ceramide 1 mg/kg and oxaliplatin dose levels of 11.0 mg/kg→3.5 mg/kg. […] We next studied the optimum ceramide dose level from 1 mg/kg to 10 mg/kg.
# L36 Tumors = test: Short term (4/24 hrs) histopathology of L3.6 tumors: necrosis, mitotic index, apoptosis (H&E), caspase 3 staining; format: in vivo, mice
# Description: as §1
# [2] = IP 3x/wk from day 4, paclitaxel 3.0, oxaliplatin 2.5, cisplatin 0.5 mg/kg, ceramide 10 mg/kg, volumes calculated in cm^3
# [3] = same dosing, 6 week observation
# [4] = Oxaliplatin at 2.5 mg/kg with low dose ceramide 1 mg/kg
smiles,measurement,setting,value
"CCCCCCCCCCCCC/C=C/[C@@H](O)[C@H](CO)NC(=O)CCCCC [Ceramide, N-hexanoyl-D-sphingosine]",% Survival @ 3 Weeks,[1],40%
same,% Surviving at 3 wks,[1]; table T3,40%
same,% Survival @ 6 Weeks,[1],0%
same,% Surviving at 6 wks,[1]; table T3,0%
same,synergy regarding anti-tumor effect,[1]; Ceramide 10 mg/kg with oxaliplatin 2.5 mg/kg,optimum synergy
same,enhancement of oxaliplatin by ceramide,[1]; Ceramide at 1 mg/kg with oxaliplatin 2.5 mg/kg,only modest effects
same,Mean Final Tumor Volume,[1]; [2],1.69 +/− 0.3
same,Mean Body Weight (g) (Time of Death or Sacrifice),[1],17.0 g
same,animal weight under combination therapy,"[1]; mouse, in vivo",preservation of animal weight
same,Mean Survival Time,[1]; [3],20.8 ± 1.1 days
same,Mean Final Tumor Volume,[1]; table T3,1.69 +/− .03
same,Mean Survival Time,[1]; table T3,20.8 +/− 1.1
same,% of Necroses,L36 Tumors; 4 hr after treatment,30/NA %
same,Apoptosis Index,L36 Tumors; 4 hrs,1.6
same,Apoptosis N/4000 Cells,L36 Tumors; 4 hrs,64 N/4000 Cells
same,Caspase 3 Index,L36 Tumors; 4 hrs,4.12
same,Caspase N/4000 Cells,L36 Tumors; 4 hrs,165 N/4000 Cells
same,Difference in Caspase Expression Vs. Control,L36 Tumors; 4 hrs,155%
same,Mitotic Index,L36 Tumors; 4 hrs,0.6%
same,Apoptosis Index,L36 Tumors; 24 hrs,1/2
same,Apoptosis N/4000 Cells,L36 Tumors; 24 hrs,46 N/4000 Cells
same,Caspase 3 Index,L36 Tumors; 24 hrs,4.25
same,Caspase N/4000 Cells,L36 Tumors; 24 hrs,157 N/4000 Cells
same,Difference in Caspase Expression Vs. Control,L36 Tumors; 24 hrs,148%
same,Mitotic Index,L36 Tumors; 24 hrs,0/32
N.N.[Cl][Pt][Cl] [Cisplatin],% Survival @ 3 Weeks,[1],60%
same,% Surviving at 3 wks,[1]; table T3,60%
same,% Survival @ 6 Weeks,[1],0%
same,% Surviving at 6 wks,[1]; table T3,0%
same,Mean Final Tumor Volume,[1]; [2],1.83 +/− 0.1
same,anti-tumor response in combination therapy with C6-ceramide,[1],significantly enhanced
same,Mean Body Weight (g) (Time of Death or Sacrifice),[1],16.6 g
same,Mean Survival Time,[1]; [3],25.6 ± 3.2 days
same,Mean Final Tumor Volume,[1]; table T3,1.83 +/− 0.1
same,Mean Survival Time,[1]; table T3,25.6 +/− 3.2
O=C1[O][Pt]2([NH][C@@H]3CCCC[C@H]3[NH]2)[O]C1=O [Oxaliplatin],% Survival @ 3 Weeks,[1],100%
same,% Surviving at 3 wks,[1]; table T3,100%
same,% Survival @ 6 Weeks,[1],0%
same,% Surviving at 6 wks,[1]; table T3,0%
same,Mean Final Tumor Volume,[1]; [2],1.76 +/− 0.2
same,activity in initial dose response studies,[1]; [4],most active
same,toxicity in initial dose response studies,[1]; [4],less toxic than other dose levels
same,anti-tumor response in combination therapy with C6-ceramide,[1],significantly enhanced
same,Mean Body Weight (g) (Time of Death or Sacrifice),[1],15.6 g
same,Mean Survival Time,[1]; [3],27.4 ± 2.2 days
same,Mean Final Tumor Volume,[1]; table T3,1.76 +/− 0.2
same,Mean Survival Time,[1]; table T3,27.4 +/− 2.2
same,% of Necroses,L36 Tumors; 4 hr after treatment,30%
same,Apoptosis Index,L36 Tumors; 4 hrs,1.35
same,Apoptosis N/4000 Cells,L36 Tumors; 4 hrs,54 N/4000 Cells
same,Caspase 3 Index,L36 Tumors; 4 hrs,3.5
same,Caspase N/4000 Cells,L36 Tumors; 4 hrs,148 N/4000 Cells
same,Difference in Caspase Expression Vs. Control,L36 Tumors; 4 hrs,132%
same,Mitotic Index,L36 Tumors; 4 hrs,0.92%
same,% of Necroses,L36 Tumors; 24 hr after treatment,10%
same,Apoptosis Index,L36 Tumors; 24 hrs,1.28
same,Apoptosis N/4000 Cells,L36 Tumors; 24 hrs,51 N/4000 Cells
same,Caspase 3 Index,L36 Tumors; 24 hrs,3/1
same,Caspase N/4000 Cells,L36 Tumors; 24 hrs,123 N/4000 Cells
same,Difference in Caspase Expression Vs. Control,L36 Tumors; 24 hrs,121%
same,Mitotic Index,L36 Tumors; 24 hrs,0/57
"CC(=O)O[C@H]1C(=O)[C@@]2(C)[C@H]([C@H](OC(=O)c3ccccc3)[C@]3(O)C[C@H](OC(=O)[C@H](O)[C@@H](NC(=O)c4ccccc4)c4ccccc4)C(C)=C1C3(C)C)[C@]1(OC(C)=O)CO[C@@H]1C[C@@H]2O [Taxol, Paclitaxel]",% Survival @ 3 Weeks,[1],60%
same,% Surviving at 3 wks,[1]; table T3,60%
same,% Survival @ 6 Weeks,[1],0%
same,% Surviving at 6 wks,[1]; table T3,0%
same,Mean Final Tumor Volume,[1]; [2],1.83 +/− 0.4
same,anti-tumor response in combination therapy with C6-ceramide,[1],significantly enhanced
same,Mean Body Weight (g) (Time of Death or Sacrifice),[1],17.4 g
same,Mean Survival Time,[1]; [3],23.0 ± 2.4 days
same,Mean Final Tumor Volume,[1]; table T3,1.83 +/− 0.4
same,Mean Survival Time,[1]; table T3,23.0 +/− 2.4
same,% of Necroses,L36 Tumors; 4 hr after treatment,50/NA %
same,Apoptosis N/4000 Cells,L36 Tumors; 4 hrs,66 N/4000 Cells
same,Difference in Caspase Expression Vs. Control,L36 Tumors; 4 hrs,95%/ ^
same,Apoptosis N/4000 Cells,L36 Tumors; 24 hrs,110 N/4000 Cells
